From patent publication US6288091A, “Antiherpes virus compounds and methods for their preparation and use” (Boehringer Ingelheim Ltd., priority 1999, dated 2001)
Where two headings read alike, the source gives them in different places.

Columns and labels:
HSV-1 helicase-primase = biological target: T1, HSV-1 helicase-primase (Human herpesvirus 1, UniProt P10189+P10236); assay: HSV-1 DNA-dependent ATPase assay (inhibition of HSV-1 helicase-primase); type: biochemical
T1 construct: made in house; host or cells: Sf21 insect cells triply infected with recombinant baculoviruses (UL5, UL8, UL52)
Summary of the method: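 ATP hydrolysis was measured as inorganic phosphate (malachite green/molybdate, 650 nm) after 20 min at 34°. Reaction: 3 μg/mL purified Sf21-expressed UL5/UL8/UL52 helicase-primase, 25 μM single-stranded M13 DNA hybridized to 68-mer, 4 mM ATP, pH 7.5 HEPES buffer, 3.3% DMSO. Net absorbance change with and without inhibitor gave DNA-dependent ATPase activity.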

HSV-1 strain F or KOS = assay: Inhibition of herpes simplex virus (HSV-1) replication in cell culture (BHK-21 cells, glycoprotein C ELISA); type: cell-based
Summary of the method: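 Replication readout: ELISA for HSV-1 late glycoprotein C (mAb C11, peroxidase-OPD, 450 nm) on glutaraldehyde-fixed cells. Monolayers (~50,000 cells/well) were infected with strain F or KOS (MOI 0.05 PFU/cell), then incubated 24 h at 37° with compound in 2% FBS α-MEM. EC50 derived from % inhibition.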

HCMV (strain AD169) = assay: Inhibition of HCMV replication, plaque reduction assay (PRA, Hs-68 cells); type: cell-based, Human Cytomegalovirus (HCMV); conditions: read-out: PRA CMV EC50
Summary of the method: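 Hs-68 monolayers (80–90% confluent) were infected with ~50 PFU HCMV AD169 for 2 h at 37°, then given compound in DMEM/5% inactivated FBS, refreshed after 4 days and kept 4 more days. Plaques were counted after formaldehyde fixation and crystal violet staining. EC50 derives from percent plaque reduction versus untreated wells.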

[1] = Human alphaherpesvirus 1, BHK-21, Group 1 Table 1 entries
[2] = Human betaherpesvirus 5, AD169, Hs68, Group 1 Table 1 entries
[3] = Group 1 Table 2 entries (Q = CH2)
[4] = Human alphaherpesvirus 1, BHK-21, Group 1 Table 2 entries
[5] = Human betaherpesvirus 5, AD169, Hs68, Group 1 Table 2 entries
[6] = Human alphaherpesvirus 1, BHK-21, Group 1 Table 3 entries
[7] = Human betaherpesvirus 5, AD169, Hs68, Group 1 Table 3 entries
[8] = Human alphaherpesvirus 1, BHK-21, Group 1 Table 5 entries
[9] = Human betaherpesvirus 5, AD169, Hs68, Group 1 Table 5 entries

T1 sequence (P10192 whole entry): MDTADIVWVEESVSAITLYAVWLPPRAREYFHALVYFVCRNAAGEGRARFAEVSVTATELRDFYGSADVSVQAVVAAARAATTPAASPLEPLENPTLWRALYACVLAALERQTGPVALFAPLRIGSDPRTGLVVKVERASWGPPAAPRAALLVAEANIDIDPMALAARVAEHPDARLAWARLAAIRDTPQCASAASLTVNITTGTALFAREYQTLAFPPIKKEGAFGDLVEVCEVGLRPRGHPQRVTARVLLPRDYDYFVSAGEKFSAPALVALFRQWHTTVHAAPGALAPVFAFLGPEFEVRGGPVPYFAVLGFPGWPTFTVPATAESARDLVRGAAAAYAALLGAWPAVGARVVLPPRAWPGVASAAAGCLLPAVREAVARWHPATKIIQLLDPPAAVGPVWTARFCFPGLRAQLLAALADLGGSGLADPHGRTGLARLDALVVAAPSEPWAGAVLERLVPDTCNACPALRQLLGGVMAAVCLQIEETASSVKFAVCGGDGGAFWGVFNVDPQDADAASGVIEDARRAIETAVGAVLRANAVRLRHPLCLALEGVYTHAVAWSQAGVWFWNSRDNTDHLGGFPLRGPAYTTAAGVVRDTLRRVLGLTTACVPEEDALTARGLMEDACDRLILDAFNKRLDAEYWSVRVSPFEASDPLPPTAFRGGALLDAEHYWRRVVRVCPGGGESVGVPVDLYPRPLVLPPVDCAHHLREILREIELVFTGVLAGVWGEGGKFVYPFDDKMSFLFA
T1 sequence (P10236 whole entry): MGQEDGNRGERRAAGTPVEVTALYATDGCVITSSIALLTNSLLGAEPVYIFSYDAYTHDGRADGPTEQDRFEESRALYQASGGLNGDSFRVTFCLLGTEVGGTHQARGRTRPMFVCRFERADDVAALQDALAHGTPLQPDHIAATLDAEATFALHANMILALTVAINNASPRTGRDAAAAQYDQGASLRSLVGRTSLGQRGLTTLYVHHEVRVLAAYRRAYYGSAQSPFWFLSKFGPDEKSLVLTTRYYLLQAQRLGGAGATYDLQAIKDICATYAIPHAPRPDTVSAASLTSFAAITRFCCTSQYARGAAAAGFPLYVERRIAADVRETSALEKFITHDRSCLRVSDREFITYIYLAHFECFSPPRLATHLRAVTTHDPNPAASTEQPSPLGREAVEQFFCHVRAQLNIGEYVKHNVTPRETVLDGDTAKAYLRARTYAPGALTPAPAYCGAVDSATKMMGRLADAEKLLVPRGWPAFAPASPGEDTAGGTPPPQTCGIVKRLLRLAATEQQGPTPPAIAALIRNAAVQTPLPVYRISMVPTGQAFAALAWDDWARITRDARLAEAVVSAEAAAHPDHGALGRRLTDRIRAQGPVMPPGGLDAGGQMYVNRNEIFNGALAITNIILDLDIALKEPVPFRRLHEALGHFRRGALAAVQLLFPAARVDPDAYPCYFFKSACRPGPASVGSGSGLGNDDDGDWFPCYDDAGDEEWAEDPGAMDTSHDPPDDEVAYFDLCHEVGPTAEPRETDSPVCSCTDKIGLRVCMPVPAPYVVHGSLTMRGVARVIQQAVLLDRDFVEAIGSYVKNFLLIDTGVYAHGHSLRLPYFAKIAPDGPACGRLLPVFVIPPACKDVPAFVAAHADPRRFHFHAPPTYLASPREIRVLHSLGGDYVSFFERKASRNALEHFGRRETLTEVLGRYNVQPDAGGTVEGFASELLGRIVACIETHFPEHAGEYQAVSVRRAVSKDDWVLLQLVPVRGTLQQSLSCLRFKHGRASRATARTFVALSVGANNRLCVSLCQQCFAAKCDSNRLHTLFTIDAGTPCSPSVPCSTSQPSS
T1 sequence (P10189 whole entry): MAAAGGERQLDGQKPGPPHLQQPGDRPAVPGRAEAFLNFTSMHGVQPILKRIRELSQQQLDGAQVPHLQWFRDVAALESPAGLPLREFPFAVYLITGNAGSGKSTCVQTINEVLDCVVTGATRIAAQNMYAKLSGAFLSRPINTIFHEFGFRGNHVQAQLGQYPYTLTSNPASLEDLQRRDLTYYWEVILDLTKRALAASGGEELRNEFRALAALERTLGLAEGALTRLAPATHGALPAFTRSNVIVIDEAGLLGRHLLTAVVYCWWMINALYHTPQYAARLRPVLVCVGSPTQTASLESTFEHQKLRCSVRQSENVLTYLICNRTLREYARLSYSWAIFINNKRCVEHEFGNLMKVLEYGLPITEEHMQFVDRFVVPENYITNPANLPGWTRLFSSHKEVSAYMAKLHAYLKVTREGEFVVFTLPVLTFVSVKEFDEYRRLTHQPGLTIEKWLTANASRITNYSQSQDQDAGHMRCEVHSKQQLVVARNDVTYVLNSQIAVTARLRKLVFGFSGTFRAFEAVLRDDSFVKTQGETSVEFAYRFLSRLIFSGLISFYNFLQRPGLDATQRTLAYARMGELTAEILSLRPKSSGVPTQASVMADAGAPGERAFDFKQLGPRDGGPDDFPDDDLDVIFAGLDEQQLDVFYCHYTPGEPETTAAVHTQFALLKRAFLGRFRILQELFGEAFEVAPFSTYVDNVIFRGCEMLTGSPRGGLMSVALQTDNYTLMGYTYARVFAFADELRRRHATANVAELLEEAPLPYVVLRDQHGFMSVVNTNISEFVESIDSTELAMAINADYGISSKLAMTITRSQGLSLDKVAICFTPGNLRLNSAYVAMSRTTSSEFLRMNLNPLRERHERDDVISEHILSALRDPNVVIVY

SMILES | IC50 (HSV-1 helicase-primase; Group 1 Table 1 entries) [nM] | EC50 (HSV-1 strain F or KOS; [1]) [nM] | EC50 (HCMV (strain AD169); [2]) [µM] | IC50 (HSV-1 helicase-primase; [3]) [nM] | EC50 (HSV-1 strain F or KOS; [4]) [nM] | EC50 (HCMV (strain AD169); [5]) [µM] | also measured
Nc1nc(-c2ccc(NC(=O)CN(CCc3ccccn3)C(=O)C3CCCCC3)cc2)cs1 [Example 50] | 600 | 68 | 13 | – | – | – | –
CC(C)(C)CC(=O)N(CC(=O)Nc1ccc(-c2csc(N)n2)cc1)Cc1ccccc1 [Example 42] | 26 | 2 | 20 | – | – | – | –
CC(C)(C)OC(=O)N(CCC(=O)Nc1ccc(-c2csc(N)n2)cc1)C1Cc2ccccc2C1 [Example 14] | – | – | – | 1700 | 1800 | > 28 | –
Nc1nc(-c2ccc(NC(=O)CN(CCc3ccccc3)C(=O)C3CCCC3)cc2)cs1 [Example 66] | 400 | 90 | > 10 | – | – | – | –
Nc1nc(-c2ccc(NC(=O)CN(CCc3ccccn3)C(=O)C3CCCC3)cc2)cs1 [Example 79] | 840 | 160 | 55 | – | – | – | –
CC(C)(C)OC(=O)NCC(=O)N(CC(=O)Nc1ccc(-c2csc(N)n2)cc1)Cc1ccccc1 [Example 72] | 650 | 670 | 24 | – | – | – | –
CCCC(CCC)N(CC(=O)Nc1ccc(-c2csc(N)n2)cc1)C(=O)C1CCCCC1 [Example 82] | 620 | 60 | 7 | – | – | – | –
Nc1nc(-c2ccc(NC(=O)CCN(Cc3ccccc3)C(=O)C3CCCCC3)cc2)cs1 [Example 8] | – | – | – | 1700 | 1100 | 13 | –
CC(C)(C)OC(=O)N(CCC(=O)Nc1ccc(-c2csc(N)n2)cc1)Cc1ccccc1 [Example 15] | – | – | – | 280 | 640 | 9 | –
Nc1nc(-c2ccc(NC(=O)CCNC3Cc4ccccc4C3)cc2)cs1 [Example 10] | – | – | – | 21000 | 3900 | 14 | –
CC(C)c1nc(-c2ccc(NC(=O)CN(Cc3ccccc3)C(=O)c3ccccc3)cc2)cs1 [Example 20] | – | – | – | – | – | – | IC50 (HSV-1 helicase-primase; Group 1 Table 3 entries): > 50000 nM; EC50 (HSV-1 strain F or KOS; [6]): > 25000 nM; EC50 (HCMV (strain AD169); [7]): 70 µM
CN(C)c1nc(-c2ccc(NC(=O)CN(Cc3ccccc3)C(=O)c3ccccc3)cc2)cs1 [Example 11] | – | – | – | – | – | – | IC50 (HSV-1 helicase-primase; Group 1 Table 3 entries): > 50000 nM; EC50 (HSV-1 strain F or KOS; [6]): 24 nM; EC50 (HCMV (strain AD169); [7]): 18 µM
C[C@H](NCCC(=O)Nc1ccc(-c2csc(N)n2)cc1)c1ccccc1 [Example 20] | – | – | – | 7200 | 1300 | 13 | –
C[C@@H](c1ccccc1)N(CCC(=O)Nc1ccc(-c2csc(N)n2)cc1)C(=O)OC(C)(C)C [Example 18] | – | – | – | 1000 | 1600 | 3.3 | –
Nc1nc(-c2ccc(NC(=O)CCN(Cc3ccccc3)C(=O)OCc3ccccc3)cc2)cs1 [Example 16] | – | – | – | 1800 | 2600 | 8 | –
O=C(CN(Cc1ccccc1)C(=O)C1CCCCC1)Nc1ccc(-c2cscn2)cc1 [Example 5] | – | – | – | – | – | – | IC50 (HSV-1 helicase-primase; Group 1 Table 3 entries): 100 nM; EC50 (HSV-1 strain F or KOS; [6]): 12 nM; EC50 (HCMV (strain AD169); [7]): 16 µM
Nc1nc(-c2ccc(NC(=O)[C@@H](Cc3ccccc3)N(Cc3ccccc3)C(=O)C3CCCCC3)cc2)cs1 [Example 9] | – | – | – | – | – | – | IC50 (HSV-1 helicase-primase; Group 1 Table 5 entries): 52 nM; EC50 (HSV-1 strain F or KOS; [8]): 290 nM; EC50 (HCMV (strain AD169); [9]): 8.7 µM
Nc1nc(-c2ccc(NC(=O)CN(CC3CCCCC3)C(=O)C3CCCC3)cc2)cs1 [Example 63] | 780 | 250 | > 21 | – | – | – | –
Nc1nc(-c2ccc(NC(=O)CN(Cc3ccccn3)C(=O)C3CCCCC3)cc2)cs1 [Example 47] | 72 | 13 | > 103 | – | – | – | –
CN(CC(=O)Nc1ccc(-c2csc(N)n2)cc1)C(=O)c1ccncc1 [Example 22] | 5900 | 1800 | 110 | – | – | – | –
Nc1nc(-c2ccc(NC(=O)[C@H](Cc3ccccc3)NCc3ccccc3)cc2)cs1 [Example 6] | – | – | – | – | – | – | IC50 (HSV-1 helicase-primase; Group 1 Table 5 entries): 1060 nM; EC50 (HSV-1 strain F or KOS; [8]): 830 nM; EC50 (HCMV (strain AD169); [9]): 7 µM
CC(C)(C)OC(=O)N[C@@H](Cc1ccccc1)C(=O)Nc1ccc(-c2csc(N)n2)cc1 [Example 3] | – | – | – | – | – | – | IC50 (HSV-1 helicase-primase; Group 1 Table 5 entries): 46 nM; EC50 (HSV-1 strain F or KOS; [8]): 16 nM; EC50 (HCMV (strain AD169); [9]): 24 µM
Nc1nc(-c2ccc(NC(=O)CCN(CC3CCCCC3)C(=O)c3cccnc3)cc2)cs1 [Example 24] | – | – | – | 1200 | 1700 | 31 | –
C[C@H](c1ccccc1)N(CC(=O)Nc1ccc(-c2csc(N)n2)cc1)C(=O)C1CCCCC1 [Example 52] | 87 | 13 | 6 | – | – | – | –
Nc1nc(-c2ccc(NC(=O)CCN(Cc3ccccc3)Cc3ccccc3)cc2)cs1 [Example 2] | – | – | – | 1200 | 2200 | 4.7 | –
